Test results from patent US12534707B2, “Method for generating cardiac tissue mimetics” (GENOME BIOLOGICS UG, priority 2019, dated 2026).
“Also recorded” adds a separate entry of the source.

Key:
[1] = system: cardiac tissue mimetics (CTMs); experiment: Contractility measurement of CTMs (spontaneous beats per minute; pacing at 1 Hz and 15 V); conditions: PE-treated vs control, electric pacing 1 Hz; FIG. 8
[2] = system: cardiac tissue mimetics (CTMs); experiment: CTM size measurement; conditions: 200 μM PE, 10 days, vs untreated control; FIG. 4
[3] = system: CTMs obtained from human iPSC; experiment: Stress response of CTMs obtained from human iPSC (contraction frequency, volume, lactate); format: cell-based; conditions: 200 μM PE
Protocol: After 10 days of culture, CTMs were treated with 200 μM Phenylephrine (PE), and in parallel, were cultured under conditions of hypoxia (3% O2). Videos of contracting CTMs were recorded for 1 min and analysed to observe the response. The contraction frequency was measured at day 3 (to obtain a short-term response) and day 20 (to obtain a long-term response). […] Human iPS cardiomyocytes (hiPS-CMs) were ordered from Fujifilm CDI and thawed before the culture. Human cardiac fibroblasts (hCFB) were cultured and trypsinized. The two cell types were mixed at a CM:FB ratio of 5:1 in plating medium (PM provided by CDI). The mixed cells were left to form cardiac tissue mimetics in 30 μL hanging drops containing PM with a density of 5000 hiPS-CMs and 1000 hCFB and incubated at 37° for four days. The cardiac tissue mimetics were then collected, and every single cardiac tissue mimetic was again distributed into each well of ultra-low-attachment (ULA) plates with maintenance medium (MM; provided by CDI). MM was changed every two days. After seven days, human IPS endothelial cells (hiPS-ECs) were thawed and added into each well at a CM:EC ratio of 2:1. A mixed medium of MM and EC growth medium (EGM; provided by CDI) at a 1:1 ratio was used and half of the medium was changed every second day. After 10 days cardiac tissue mimetics were harvested for further assays.

[4] = system: cardiac tissue mimetics (CTMs); experiment: Fluorescence immunohistochemistry of CTMs (α-actinin, WGA, Atp5a1); format: cell-based, rat, human
Protocol: Cryosections of CTMs were stained with DAPI, anti-α-Actinin and Alexa Flour conjugate of Wheat-Germ-Agglutinin. Area of 100 cardiomyocytes per condition were quantified using ImageJ. In case of whole mount stainings, CTMs were permeabilized with 0.2% Triton® X-100 in PBS for 1 hour at room temperature followed by blocking with 5% horse serum (Sigma-Aldrich) in PBS for 30 minutes at room temperature. Primary antibodies (see Table 1) were diluted 1:200 in 5% horse serum and incubated over night at 4° C. Before using the secondary antibody (see table below), CTMs were washed three times with PBS containing 1% Tween 20 and 0.002% Triton® X-100 (referred as PBT from here after) for 20 minutes at room temperature. Secondary antibodies (1:500) and DAPI (1:1000; Carl-Roth GmbH & Co. KG) were diluted in 5% horse serum together and incubated for 4 hours at room temperature in the dark. […] Cryo-sections were prepared by embedding fixed spheroids in O.C.T medium (Tissue-Tek), snap-freezing them in liquid nitrogen and cutting them in 10 μm thick sections. Sections were permeabilized and blocked for one hour in 0.1% Triton® X100 (in PBS+BSA). Primary antibody incubated with the sections diluted 1:50-1:100 in 1 mM MgCl2, 1 mM CaCl2, 0.1 mM MnCl2, 1% Triton® X-100 or 0.2% saponin over night at 4° C. […]

[5] = system: cardiac tissue mimetics (CTMs); experiment: CTM vascularisation (GFP-HUVEC sprout length, thickness, branch points); format: cell-based, rat, human; conditions: 200 μM PE, 10 days, vs control; for filopodia formation in CTMs: FIG. 13; for vascularization / angiogenesis of CTMs: FIGS. 13, 14, 36
[6] = system: cardiac tissue mimetics (CTMs); experiment: Lactate dehydrogenase assay and toxicity assay (phospho-Histone H2A.X) of CTMs; format: cell-based, rat, human
Protocol: Media of CTMs were replaced completely with fresh medium 24 h before performing the assays. After 24 h, supernatants were collected and in maximum 50 μL of each supernatant was used for every measurement with the Lactate Dehydrogenase Activity Kit (Sigma; MAK066). To determine enzyme activity, the absorbance at 450 nm (A450) was measured with the CLARIOstar plate reader (BMG Labtech). LDH activity were calculated following the manufacturer's instruction. CTMs that incubated with 0.2% H2O2 in medium for 30 minutes at 37° C. served as positive control.

[7] = system: cardiac tissue mimetics (CTMs); experiment: mRNA expression in CTMs (qPCR of titin isoforms, bulk RNA sequencing); format: cell-based, rat, human
Protocol: CTMs, heart tissues of neonatal pups and adult rats were collected into Lysing Matrix D tubes (MP Biomedical; 6913-500) and 700 μL of TriFast (VWR; 3010-100ML) was added. Cells and tissues were homogenized 3 times for 20 s following by 5 min. pause on ice. Total RNA was purified with the Direct-zol™ RNA MicroPrep kit (Zymo Research; R2060). The RNA concentration was determined by measuring absorption at 260 nm and 280 nm with the NanoDrop® ND 2000-spectrophotometer (Peq Lab).
cDNA was synthesized from 500 ng of total RNA with EcoDry Premix RNA to cDNA (Random Hexamers) (Clontech; 639546). qPCR was performed using 10 μL of iTaq™ Universal SYBR® Green Supermix (Bio-Rad; 172-5124), 1 μL of 10 μmol/L forward and reverse primer each, 1 μL of cDNA template and 7 μL of H2O in a Bio-Rad CFX96 Connect Real-Time PCR system. Primers using to quantify mRNA expression were ordered from Metabion (Table 2).
Bulk RNA sequencing was performed as previously described (J. U. G. Wagner, E. Chavakis, E. M. Rogg, M. Muhly-Reinholz, S. F. Glaser, S. Gunther, D. John, F. Bonini, A. M. Zeiher, L. Schaefer, M. J. Hannocks, R. A. Boon, S. Dimmeler, 2018, Arterioscler Thromb Vasc Biol 38(5), 1170-1177). […] Sequencing was performed on the NextSeq500 instrument (IIlumina) using v2 chemistry, resulting in minimum of 30M reads per library with 1×75 bp single end setup. […]

HUVEC spheroids = experiment: Spheroid-based angiogenic sprouting assay; format: cell-based, human
Protocol: After 72 hours, cell culture supernatants were centrifuged (500×g, 5 minutes) to deplete dead cells and stored at −80° C.
Endothelial cell sprouting was studied by in vitro spheroid-based angiogenesis assays. In brief, HUVECs were trypsinized and transferred into a mixture of fully supplemented EBM™ and methylcellulose (80%:20%). […] After 24 hours, spheroids were collected, pelleted (200×g, 3 minuted), resuspended in methylcellulose supplemented with FCS (80%:20%) and embedded in a collagen Type-I gel (Corning; 354236). HUVEC spheroids were then either cultured with fully supplemented EBM (+/−VEGF (50 ng/mL; BioLegend; 583702) or +/−PE (200 μM)), maintenance medium or conditioned cell culture medium.

[8] = system: cardiac tissue mimetics (CTMs); experiment: Seahorse assay (OCR, ECAR) of CTMs; format: cell-based, rat, human; conditions: PE-treated vs control CTMs
Protocol: The Agilent Seahorse XFe96 spheroid microplate was coated with Poly-D Lysine 100 μg/mL following the manual instruction. 1×KHB medium (111 mM NaCl, 4.7 mM KCl, 2 mM MgSO4, 1.2 mM Na2HPO4, 2.5 mM D-Glucose, 0.5 mM carnitine) supplemented with 6 mM D-Glucose was prepared prior the experiment. CTMs were washed twice with KHB medium and every single CTM was then transferred directly into each well of XFe96 spheroid microplate containing 175 μL of KHB medium. CTMs were centered into the micro-chamber and incubated at 37° C. in non-CO2 incubator for 1 hour. The Seahorse XF Cell Mito Stress Test was performed using sequential injection of Oligomycin (2.5 μM, Sigma, O4876), FCCP (2.0 μM, Sigma, C2920) and Antimycin A (0.5 μM, Sigma, A8674) following a 3-min-mixing and 3-min-measuring cycles for up to 2 hours. Oxygen consumption rate (OCR) and Extracellular acidification rate (ECAR) were measured and calculated using Seahorse XFe96 Analyzers (Agilent Technologies).

SMILES: CNC[C@H](O)c1cccc(O)c1 [PE, phenylephrine]
- contractile amplitude in paced CTMs [1]: significant increase; also recorded: augment
- CTM growth (size as volume) [2]: significantly increased
- contraction frequency ([3]; day 3, FIG. 41): significantly increased
- volume of the CTMs ([3]; day 3, FIG. 42): no significant change
- lactate concentration in culture media ([3]; day 3, FIG. 43): significant increase
- contraction frequency ([3]; day 20, FIG. 41): significantly increased
- lactate concentration in culture media ([3]; day 20, FIG. 43): significant increase
- volume of the CTMs ([3]; day 20, vs control, FIG. 42): significant increase
- cardiomyocyte maturation and hypertrophy (sarcomeric α-actinin staining, sarcomere organization and density) ([4]; 200 μM PE, 10 days, vs control, FIGS. 5-7): significantly increased
- mitochondrial function and mitochondrial density ([4]; PE-treated vs control CTMs, Atp5a1 staining, FIGS. 9-12): increased
- filopodia formation in CTMs [5]: more filopodia
- filopodia formation in CTMs ([5]; listed as phenylephrine): induces
- number of branch points in CTMs ([5]; FIG. 14): increased
- tube length (accumulated sprout length) in CTMs ([5]; FIG. 14): increased
- tube thickness in CTMs ([5]; FIG. 14): increased
- vascularization / angiogenesis of CTMs [5]: significantly augmented
- vascularization / angiogenesis of CTMs ([5]; listed as phenylephrine): induces
- extracellular lactate dehydrogenase (LDH) as marker of necrosis ([6]; mature CTMs with PE vs untreated control, FIG. 35): failed to reveal differences
- cytotoxicity in CTMs (p-γ-H2AX staining, LDH activity) ([6]; phenylephrine-treated mature CTMs, FIGS. 34 and 35): no cytotoxicity
- KEGG gene sets for adrenergic signaling, metabolism and contractility ([7]; PE stimulation vs untreated CTMs, FIG. 33): enrichment and elevated expression
- titin isoform mRNA expression (N2B, N2BA2) ([7]; PE-treated vs control CTMs, FIG. 6): shift towards adult-type titin isoform expression
- EC spheroid growth / vascular network growth and branching (cumulative sprout length), direct treatment (HUVEC spheroids; HUVEC spheroids, 200 μM PE or 50 ng/mL VEGF, 24 hours, FIG. 15): did not impact
- EC growth and sprouting with conditioned medium of PE-stimulated CM (HUVEC spheroids; neonatal rat CM treated with PE 72 hours, supernatant on HUVEC spheroids 24 hours, FIG. 17): significantly increase
- EC sprouting with conditioned medium of PE-stimulated FB (HUVEC spheroids; neonatal rat FB treated with PE 72 hours, supernatant on HUVEC spheroids 24 hours, FIG. 38): no effect
- glycolysis (basal extracellular acidification rate) ([8]; FIG. 11): reduction
- oxidation metabolism (oxygen consumption rate) ([8]; FIGS. 9-10): increased
